Reference: US20040220198A1, “Methods for treating malaria by modulation of G protein function” (priority 2002, published 2004)
“Also recorded” adds a separate entry of the source. Ends that are not written are not given here.

Columns and labels:
[1] = system: P. falciparum (strain 3D7); test: In vitro erythrocytic infection assay with Gs receptor agonists/antagonists, new ring stage infection after 4-6 h; assay type: cell-based, Plasmodium falciparum; details: for blocking the stimulation of infection by P. falciparum in vitro: 10 μM isoproterenol or antagonist, 4-6 hours, FIG. 10
Procedure: Effects of β-adrenergic receptor agonist (isoproterenol) or antagonist (propranolol) on erythrocyte infection by P. falciparum. Cultures containing 2×10^8 red cells and 2.5×10^6 synchronized segmenters were incubated in 1 ml of 10% medium (10% human serum with RPMI) with the indicated agonist, antagonist, agonist+antagonist, or mock treated (solvent alone: 1 μl) for 6 h.
Effects of adenosine receptor agonist (NECA) and antagonist (8-SPT) on infection of erythrocytes by P. falciparum. Cultures were set up as described in FIG. 5, indicated concentrations of NECA, 8-SPT, both or solvent alone were added and infection was scored after 6 h as described.
Effects of (β-adrenergic and adenosine receptor) agonists and antagonists singly and in combination on in vitro erythrocytic infection by P. falciparum. In vitro infection assays were done with synchronized cultures of P. falciparum (strain 3D7) using standard culture conditions (K. Haldar, M. A. J. Ferguson, G. A. M. Cross, J Biol Chem 260, 4969 (1985)). A starting parasitemia of 2.5% schizonts (44-48 h in development) in 20 μl of red blood cells with 1 ml of 10% human serum in RPMI1640 was used. The cultures were incubated for 4-6 hours in the presence of Gαs protein receptor agonist or antagonist, or vehicle control. All detectable schizonts ruptured, and new ring stage infection was scored by Giemsa staining of thin blood smears.
In vitro effect of various β-adrenergic antagonists on inhibition of P. falciparum infection in red blood cells treated with isoproterenol. In vitro infection assays were done with synchronized cultures of P. falciparum (strain 3D7) using standard culture conditions (K. Haldar, M. A. J. Ferguson, G. A. M. Cross, J Biol Chem 260, 4969 (1985)). A starting parasitemia of 2.5% schizonts (44-48 h in development) in 20 μl of red blood cells with 1 ml of 10% human serum in RPMI1640 was used. The cultures were incubated for 4-6 hours in the presence of 10 μM beta-adrenergic receptor agonists or antagonists, or vehicle control. All detectable schizonts ruptured, and new ring stage infection was scored by Giemsa staining of thin blood smears.
In vitro infection assays were done with synchronized cultures of P. falciparum (strain 3D7) using standard culture conditions. A starting parasitemia of 2.5% schizonts (44-48 h in development) in 20 μl of red blood cells with 1 ml of 10% human serum in RPMI1640 was used. The cultures were incubated for 4-6 hours in the presence of 10 μM isoproterenol or antagonist, or vehicle control. All detectable schizonts ruptured, and new ring stage infection was scored by Giemsa staining of thin blood smears.

[2] = system: P. berghei; test: Standard 4 day Peters assay, P. berghei in mice, drug intraperitoneally; assay type: in vivo; details: for inhibition of parasitemia / P. berghei infection in vivo: mice, day 4 parasitemia
Procedure: (§1) FIG. 11. […] In vivo mouse experiments were done with P. berghei using a standard 4 day Peters assay (W. Peters, B. L. Robinson, Ann Trop Med Parasitol 78, 561 (1984)). P. berghei and the racemic form of propranolol were administered intraperitoneally; five mice were used per data point. In IC50 studies, 5 data points were taken. Mice were given 5×10^7 parasites on day 0, and indicated concentrations of drug twice a day on days 0-3. Tail bleeds were carried out on day 4 to ascertain parasitemia, after which the animals were sacrificed.
as §1, with “12.” for “11.”, “ICI 181,551” for “the racemic form of propranolol”
(§2) In vivo mouse experiments were done with P. berghei using a standard 4 day Peters assay (W. Peters, B. L. Robinson, Ann Trop Med Parasitol 78, 561 (1984)). P. berghei and β2-adrenergic receptor antagonists were administered intraperitoneally; five mice were used per data point. In IC50 studies, 5 data points were taken. Mice were given 5×10^7 parasites on day 0, and indicated concentrations of drug twice a day on days 0-3. Tail bleeds were carried out on day 4 to ascertain parasitemia, after which the animals were sacrificed.
as §2, with “assay.” for “assay (W. Peters, B. L. Robinson, Ann Trop Med Parasitol 78, 561 (1984)).”, “ICI 181,551” for “β2-adrenergic receptor antagonists”
as §2, with “assay.” for “assay (W. Peters, B. L. Robinson, Ann Trop Med Parasitol 78, 561 (1984)).”, “the indicated” for “β2-adrenergic receptor”, “point.” for “point. In IC50 studies, 5 data points were taken.”

[3] = biological target: host Gs coupled receptors of the red cell; test: cell-based or functional assay
[4] = system: P. falciparum; test: Overnight P. falciparum infection assay with C terminal G protein peptides, new ring stage infection scored by Giemsa staining; assay type: cell-based, Plasmodium falciparum; details: for effect on erythrocytic infection / new ring formation (words): 500 μM peptide in culture; for % Inhibition of Infection: 500 uM peptide, overnight, compared to mock treated cultures, standard error 10%
Procedure: FIG. 2. Effects of FITC-Gs peptide and its FITC-Gs-scrambled peptide on erythrocytic infection. Assays containing 500 μM of indicated peptides, their FITC-derived counterparts or solvent alone were added to a standard infection assay (see Table 1). FIG. 3. Cells taken from a standard infection assay incubated with 500 μM FITC-Gs peptide (A) or FITC-Gs scrambled peptide (B) were fixed in formaldehyde, and without permeabilization subjected to an indirect immunofluorescence assay with anti-MSP1 antibody (red, to detect extracellular parasites) and stained with DAPI (blue, to visualize nuclei). Samples were imaged by digitized fluorescence microscopy (FITC signal is green). Infection assays were set up using synchronized cultures of P. falciparum with a starting parasitemia of 6% schizonts. Cultures were incubated with 500 uM of the indicated peptides (Gs, Gs-scrambled, Gq or Gi-reversed) or mock treated (with no peptide) overnight and subsequently scored for new ring stage infection by Giemsa staining of thin blood smears. Infection is shown compared to that of mock treated cultures (containing no peptide).

[5] = system: P. falciparum; test: Dose dependent effect of Gs peptide on ring-infected P. falciparum cultures (development to trophozoites and next generation rings); assay type: cell-based, Plasmodium falciparum; details: for effect on parasite growth in culture / new ring formation: extracellular 100-500 μM, Tables I and II
Procedure: Table II illustrates the dose dependent effect of Gs peptide on inhibition of P. falciparum infection. In this study, ring-infected cultures at 1% parasitemia were incubated with the indicated concentrations of Gs peptides under standard culture conditions and monitored for development to the subsequent trophozoite stage as well as the next generation of ring stage parasites. Parasitemias were detected by Giemsa staining of thin blood smears. Standard error: 10%.

[6] = system: P. falciparum; test: Preincubation (4 h) of red cells or schizonts with Gs peptide, wash, then overnight infection assay; assay type: cell-based, Plasmodium falciparum; details: 500 μM, 4 h preincubation of red cells or late stage segmenters/schizonts, FIG. 1; listed as Gs peptide
Procedure: FIG. 1. Effects of preincubating (for 4 h) red cells or schizonts with Gs peptide on malarial infection. Uninfected red cells or schizonts were resuspended at 2×10^8 cells/ml in RPMI1640 and incubated with 500 μM Gs peptide or mock treated for 4 h at 37° C. The cells were subsequently recovered by centrifugation and washing in peptide-free medium. Washed cells were then subjected to an overnight infection assay (using 4% schizonts to infect the culture) in the absence of peptides.

Question: Which “blocking the stimulation of infection by P. falciparum in vitro” value [1] does the source give for `COc1ccc(OC)c(C(O)C(C)NC(C)(C)C)c1` (centres unmarked) [butoxamine] here?
Answer: lower inhibitory effect

Question: Which “blocking the stimulation of infection by P. falciparum in vitro” value [1] does the source give for `CC(C)NCC(O)COc1cccc2ccccc12` (racemic) [racemic propranolol] here?
Answer: inhibit agonist-stimulated infection of P. falciparum in vitro

Question: And the IC90 ([2]; P. berghei infections in mice, twice a day days 0-3, FIG. 11)?
Answer: 85 mg/kg/day

Question: What about the “inhibition of parasitemia / P. berghei infection in vivo” value [2] of the same compound?
Answer: block P. berghei infections in mice

Question: For `Cc1ccc(OCC(O)C(C)NC(C)C)c2c1CCC2` (centres unmarked) [ICI 181,551], which “inhibition of parasitemia / P. berghei infection in vivo” value [2] is on record?
Answer: effective at inhibiting parasitemia in vivo

Question: For `CC(C)NC[C@@H](O)COc1cccc2ccccc12` (single isomer, unassigned) [inactive isomer of propranolol], which “P. falciparum growth in culture” value [1] is on record?
Answer: no effect

Question: And the “inhibition of parasitemia / P. berghei infection in vivo” value [2]?
Answer: no effect

Question: Which results are given for “Gαs peptide (C terminal peptide of the heterotrimeric G protein Gs)”?
Answer: % Inhibition of Infection (P. falciparum erythrocytic infection, 500 uM peptide, overnight) [3]: 87%; Day 3 % Ring (new ring stage parasitemia) at 5 µM Gs peptide; 5.2 at 0 µM [3]: 3.8%; Day 3 % Ring (new ring stage parasitemia) at 20 µM Gs peptide; 5.2 at 0 µM [3]: 2.7%; Day 3 % Ring (new ring stage parasitemia) at 50 µM Gs peptide; 5.2 at 0 µM [3]: 1.9%; Day 3 % Ring (new ring stage parasitemia) at 100 µM Gs peptide; 5.2 at 0 µM [3]: 1.4%; Day 3 % Ring (new ring stage parasitemia) at 200 µM Gs peptide; 5.2 at 0 µM [3]: 0.6%; Day 3 % Ring (new ring stage parasitemia) at 500 µM Gs peptide; 5.2 at 0 µM [3]: 0.4%

Question: Which results are given for “ELRLQHYMQLR (SEQ ID NO:2) (synthetic scrambled G s peptide Gscb1) [Gs-scrambled]”?
Answer: effect on erythrocytic infection / new ring formation (words) [4]: does not block infection; effect on erythrocytic infection / new ring formation (words) ([4]; listed as Gscb1): virtually no effect; % Inhibition of Infection [4]: 4%

Question: What does the source list for “QRMHLRQYELL (SEQ ID NO:1) (also: acetylated) [Gs]”?
Answer: effect on erythrocytic infection / new ring formation (words) [4]: marked inhibition of new rings; also recorded: significantly reduced erythrocytic infection; % Inhibition of Infection [4]: 87%; % Ring ([5]; Day 1, 5 μM Gs Peptide): 1.0%; % Ring ([5]; Day 1, 20 μM Gs Peptide): 1.0%; % Ring ([5]; Day 1, 50 μM Gs Peptide): 1.0%; % Ring ([5]; Day 1, 100 μM Gs Peptide): 1.0%; % Ring ([5]; Day 1, 200 μM Gs Peptide): 1.0%; % Ring ([5]; Day 1, 500 μM Gs Peptide): 1.0%; % Troph ([5]; Day 2, 5 μM Gs Peptide): 0.9%; % Troph ([5]; Day 2, 20 μM Gs Peptide): 1.0%; % Troph ([5]; Day 2, 50 μM Gs Peptide): 0.9%; % Troph ([5]; Day 2, 100 μM Gs Peptide): 0.8%; % Troph ([5]; Day 2, 200 μM Gs Peptide): 1.0%; % Troph ([5]; Day 2, 500 μM Gs Peptide): 0.9%; % Ring ([5]; Day 3, 5 μM Gs Peptide): 3.8%; % Troph ([5]; Day 3, 5 μM Gs Peptide): 0.6%; % Ring ([5]; Day 3, 20 μM Gs Peptide): 2.7%; % Troph ([5]; Day 3, 20 μM Gs Peptide): 0.6%; % Ring ([5]; Day 3, 50 μM Gs Peptide): 1.9%; % Troph ([5]; Day 3, 50 μM Gs Peptide): 0.3%; % Ring ([5]; Day 3, 100 μM Gs Peptide): 1.4%; % Troph ([5]; Day 3, 100 μM Gs Peptide): 0.6%; % Ring ([5]; Day 3, 200 μM Gs Peptide): 0.6%; % Troph ([5]; Day 3, 200 μM Gs Peptide): 0.5%; % Ring ([5]; Day 3, 500 μM Gs Peptide): 0.4%; % Troph ([5]; Day 3, 500 μM Gs Peptide): 0.5%; effect on parasite growth in culture / new ring formation ([5]; listed as Gs peptide): marked effect on new ring formation; effect on parasite growth in culture / new ring formation ([5]; listed as Gαs peptide): inhibit parasite growth in culture, in a dose dependent manner; extracellular concentrations required for significant inhibition ([5]; new ring formation): > 50 µM; effect of preincubation with peptide on infection [6]: no detrimental effect on infection; also recorded: failed to block infection

Question: “NGIKCLFNDKL (SEQ ID NO:4) (synthetic reverse C terminal peptide of Gri) [Gi-reverse, reverse of C terminal peptide of Gi]” was tested. Which “effect on erythrocytic infection / new ring formation (words)” value ([4]; listed as Gi) did it give?
Answer: no significant effect on infection

Question: What about the “effect on erythrocytic infection / new ring formation (words)” value ([4]; listed as Gri) of the same compound?
Answer: little effect on plasmodial growth

Question: What about the “% Inhibition of Infection” value [4] of the same compound?
Answer: 6%

Question: For `CC(C)NCC(O)COc1ccc(CC(N)=O)cc1` (centres unmarked) [altenolol, 4-[2-Hydroxy-3-[(1-methylethyl)amino]-propoxy]benzeneacetamide], which “blocking the stimulation of infection by P. falciparum in vitro” value [1] is on record?
Answer: almost as effective as propranolol at blocking the stimulation of infection

Question: “LQLNLKEYNLV (SEQ ID NO: 3) (synthetic C terminal peptide of Gq)” was tested. Which “effect on erythrocytic infection / new ring formation (words)” value [4] did it give?
Answer: little effect on plasmodial growth; also recorded: no significant effect on infection

Question: What about the “% Inhibition of Infection” value [4] of the same compound?
Answer: 20%
